Some test systems named below: HOP-62 NSCLC; UO-31 renal; CCRF-CEM leukemia; HCC-2998 colon; EKVX NSCLC; A498 renal; OVCAR-8 ovarian; NCI-H522 lung; MDA-MB-231 breast; SR leukemia.
Common to all, as to assay: DTP human tumour cell line panel, 48 h

Where “and” joins values, the source holds several entries; their conditions need not be identical. Identical values can stand only once.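 A five-concentration, 48-hour dose response in 96-well plates underlies each endpoint, interpolated linearly between surrounding concentrations. GI50: concentration for 50% inhibition of growth. TGI marks complete inhibition of growth.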 Some results are limits rather than exact numbers.

These results are taken from PubChem BioAssay (NCI).

Take `CSC1CC2C(CC1(C)O)C2(C)C` (centres undefined): the TGI with HOP-62 NSCLC was greater than 100 µM; in the test on UO-31 renal, greater than 100 µM; in the test with CCRF-CEM leukemia it was greater than 100 µM; with HCC-2998 colon, greater than 100 µM; with EKVX NSCLC, 92.1 µM and > 100 µM; with A498 renal, greater than 100 µM. Moreover, the TGI in the test with OVCAR-8 ovarian and in the test with NCI-H522 lung was greater than 100 µM each time. Further, the GI50 in the test with CCRF-CEM leukemia is 49.3 µM and > 100 µM; in the test on EKVX NSCLC, 13.3 µM and > 100 µM; in the test with NCI-H522 lung, 33.8 µM and > 100 µM.

As for `COP(=O)(O)/C=C/C(NC(=O)C(Cl)(Cl)Cl)c1ccccc1` (centres undefined), the TGI in the test on HOP-62 NSCLC, with UO-31 renal, with HCC-2998 colon, with EKVX NSCLC, in the test with A498 renal and in the test with MDA-MB-231 breast was greater than 100 µM in each case. Moreover, the concentration for total growth inhibition (TGI) in the test on OVCAR-8 ovarian and in the test on NCI-H522 lung was greater than 100 µM throughout.

In the case of `Cc1ccc(S(=O)(=O)Oc2cc(N)c3c(n2)CCC3)cc1`, the TGI in the test with HOP-62 NSCLC, with UO-31 renal, in the test on CCRF-CEM leukemia, with HCC-2998 colon, in the test with EKVX NSCLC and in the test with A498 renal was greater than 100 µM each time. The total growth inhibition concentration (TGI) in the test with MDA-MB-231 breast and in the test with OVCAR-8 ovarian was greater than 100 µM each time.

Take `CCOC(=O)C1=C(C(C)=O)CSC(c2ccccc2)=N1`: the TGI in the test on UO-31 renal, in the test with CCRF-CEM leukemia, in the test with HCC-2998 colon, in the test with EKVX NSCLC, with A498 renal and in the test with OVCAR-8 ovarian was greater than 100 µM in each case. In addition, in the test with NCI-H522 lung, the total growth inhibition concentration (TGI) is greater than 100 µM.

On to `COC(=O)c1csnn1`, for which the TGI in the test on HOP-62 NSCLC, with UO-31 renal, in the test on CCRF-CEM leukemia, in the test with HCC-2998 colon, in the test with EKVX NSCLC and in the test with OVCAR-8 ovarian was greater than 100 µM in each case. Further, the TGI in the test with NCI-H522 lung and in the test with SR leukemia was greater than 100 µM in each case.

Turning to `O=C(O)C1CC(c2ccc(F)cc2)=Nc2ccc(F)cc2S1` (centres undefined), the TGI in the test on UO-31 renal, in the test with CCRF-CEM leukemia, in the test with HCC-2998 colon, in the test on EKVX NSCLC, with A498 renal and in the test with MDA-MB-231 breast was greater than 100 µM throughout. Also, the TGI in the test with OVCAR-8 ovarian and in the test on NCI-H522 lung was greater than 100 µM throughout.

`Nc1c2ccccc2nc2c1ccc1ncccc12`: the TGI in the test with UO-31 renal was 40.2 µM; in the test on CCRF-CEM leukemia, 39 µM; in the test with HCC-2998 colon, 39.1 µM; in the test on EKVX NSCLC, greater than 100 µM; in the test with MDA-MB-231 breast, 96.1 µM; with OVCAR-8 ovarian, greater than 100 µM. The results for the TGI in the test on NCI-H522 lung and in the test on SR leukemia were 38.3 µM and greater than 100 µM, respectively.

For the molecule `CCC(C(=O)O)c1ccc(OCc2ccccc2)cc1` (centres undefined), the TGI in the test with HOP-62 NSCLC, with UO-31 renal, in the test on CCRF-CEM leukemia, in the test on HCC-2998 colon, in the test with EKVX NSCLC and with A498 renal was greater than 100 µM in each case. Besides, the TGI in the test on NCI-H522 lung and with SR leukemia was greater than 100 µM each time.

`Nn1c(CCCCCCCCc2nnc(COc3c(O)ccc4ccccc34)n2N)nnc1COc1c(O)ccc2ccccc12`: the TGI in the test with UO-31 renal, with HCC-2998 colon, in the test on EKVX NSCLC, in the test on A498 renal, in the test with MDA-MB-231 breast and in the test on NCI-H522 lung was greater than 100 µM throughout.

On to `COc1ccc(-c2cc(=O)c3cc4c(cc3[nH]2)OCO4)c(OC)c1OC`, for which the TGI in the test with HOP-62 NSCLC, in the test on UO-31 renal, in the test with CCRF-CEM leukemia, in the test with HCC-2998 colon, in the test on EKVX NSCLC and in the test with OVCAR-8 ovarian was greater than 100 µM in each case. Further, the TGI in the test with NCI-H522 lung is greater than 100 µM; in the test on SR leukemia it was 70.9 µM.

For `CCC1=CCC23C(=O)C=CC(=O)C2(C1)C(=O)c1cccc(OC)c1C3=O` (centres undefined), the total growth inhibition concentration (TGI) was 42.9 µM in the test on HOP-62 NSCLC; 22.7 µM with UO-31 renal; 28.1 µM in the test on CCRF-CEM leukemia; 32.9 µM in the test with EKVX NSCLC; 29.8 µM with MDA-MB-231 breast; 29.9 µM in the test on OVCAR-8 ovarian. The TGI in the test with NCI-H522 lung was greater than 100 µM; with SR leukemia, 41.4 µM.

As to `CCN(CC)CCNc1ccc2nnn3c4ccc(OC)cc4c(=O)c1c23`, the TGI is 23.8 µM in the test with HOP-62 NSCLC; 22.2 µM with UO-31 renal; 32.7 µM in the test on CCRF-CEM leukemia; 27 µM with A498 renal; 19.9 µM with OVCAR-8 ovarian; 19.6 µM in the test on NCI-H522 lung. In addition, the TGI in the test on SR leukemia came to 7.21 µM.

`CC(C)(C)C1=Cc2cc3cc(C(C)(C)C)[nH]c(=O)c3cc2S(=O)(=O)N1`: the TGI was 63 µM in the test with HOP-62 NSCLC; 35.8 µM in the test on UO-31 renal; 56.9 µM in the test on CCRF-CEM leukemia; 44.1 µM with EKVX NSCLC; greater than 100 µM in the test with A498 renal; greater than 100 µM with OVCAR-8 ovarian. Also, the values for the total growth inhibition concentration (TGI) with NCI-H522 lung and in the test with SR leukemia were 32.3 µM and 61.5 µM, respectively.

With `OC[C@@H](O)[C@H]1NC[C@@H](O)[C@H]1O`, the TGI in the test on HOP-62 NSCLC, in the test on UO-31 renal, with CCRF-CEM leukemia, in the test on HCC-2998 colon, with EKVX NSCLC and in the test with A498 renal was greater than 100 µM in each case. Also, the TGI in the test with OVCAR-8 ovarian, with NCI-H522 lung and in the test with SR leukemia was greater than 100 µM in each case.

With `COC(=O)c1c(C)cccc1/C=C1/Cc2c(C)cccc2C1=O`, the TGI in the test on HOP-62 NSCLC, in the test with UO-31 renal, in the test with HCC-2998 colon, in the test with EKVX NSCLC, in the test on A498 renal and in the test with MDA-MB-231 breast was greater than 100 µM each time. Moreover, the TGI in the test on OVCAR-8 ovarian and in the test on NCI-H522 lung was greater than 100 µM throughout.

Regarding `COc1cc(OCc2ccc3oc(=O)c(-c4ccccc4)nc3c2)cc(OC)c1OC`, the TGI in the test on HOP-62 NSCLC, in the test with UO-31 renal, in the test with CCRF-CEM leukemia, in the test on HCC-2998 colon, in the test with A498 renal and with MDA-MB-231 breast was greater than 100 µM throughout. The TGI in the test on OVCAR-8 ovarian, in the test with NCI-H522 lung and with SR leukemia was greater than 100 µM each time.
